{
  "source": "patent US9999611B2",
  "about": "“SIRT 1 activator including syringaresinol” (AMOREPACIFIC CORPORATION, priority 2011, dated 2018)",
  "key": {"[1]": {"system": "PGC-1α and PGC-1β, IL-10 and arginase I", "experiment": "Change in human PBMC type: expression of type 2 immune cell-related genes", "assay_type": "cell-based", "conditions": "human PBMCs, 20, 50 or 100 μM, vs DMSO; FIG. 21", "protocol": "After treating human PBMCs with 20, 50 or 100 μM syringaresinol or DMSO in substantially the same manner as in Test Example 11, RNA was extracted from the PBMCs and cDNA was synthesized therefrom in order to measure the expression of type 2 immune cell-related genes. The expression pattern of the transcriptional regulators necessary for inducement of differentiation to type 2 immune cells, such as PGC-1α and PGC-1β, and the genes mainly expressed in type 2 immune cells, such as IL-10 and arginase I, was measured using the synthesized cDNA."}, "[2]": {"system": "IL-1b, IL-6. iNOS, COX2, MMP9 and CCR2", "experiment": "Inhibition of expression of inflammation-related genes in LPS-treated human PBMCs", "assay_type": "cell-based", "conditions": "human PBMCs pretreated with 50 μM, then 10 ng/mL LPS; compared to cells treated only with LPS; FIG. 19", "protocol": "After pretreating human PBMCs with 50 μM syringaresinol, inflammatory response was induced by treating with 10 ng/mL LPS, in substantially the same manner as in Test Example 11. The cells treated with each sample were washed with PBS and RNA and cDNA were extracted and synthesized therefrom. Then, the expression pattern of the inflammatory response-related genes IL-1b, IL-6. iNOS, COX2, MMP9 and CCR2 was monitored using the synthesized cDNA and predesigned primers."}, "[3]": {"system": "SIRT1", "experiment": "SIRT1 expression recovering effect in gingival fibroblasts treated with cigarette smoke condensate (PCR)", "assay_type": "cell-based, human", "conditions": "cigarette smoke condensate 100 μg/mL, syringaresinol 50 or 100 μg/mL, 2 days, FIG. 2", "protocol": "Experiment was conducted to evaluate whether syringaresinol can recover SIRT1 expression that has been decreased due to smoking in gingival fibroblasts.\nGingival fibroblasts were obtained from tissue biopsies of patients having healthy gingiva. The tissue biopsy was put in a 15-mL test tube holding Dulbecco's modified Eagle's medium (DMEM, Gibco Co., USA) and blood and impurities were removed by washing 3 times. Then, the tissue biopsy was transferred onto a 100-mm tissue culture dish holding DMEM containing 10% fetal bovine serum (Gibco Co., USA) and 1% antibiotics (penicillin G 10,000 units/mL, amphotericin B 25 μg/mL, Gibco Co., USA) and finely cut to 1 mm^2 using a No. 15 blade. Then, 5-6 pieces were uniformly distributed on a 60-mm culture dish. After incubation for about 30 minutes in a 5% CO2 incubator at 37° C. and 100% humidity such that the tissue was uniformly attached on the bottom of the culture dish, 3 mL of DMEM containing 10% fetal bovine serum and 1% antibiotics was added. The culture medium was exchanged with 2-3 day intervals until a single layer of cells was formed. […]\nThe gingival fibroblasts subcultured 5-6 times were seeded onto a 24-well plate, with 1×10^4 cells per well. […] The expression pattern of the SIRT1 and GAPDH genes was monitored using the synthesized cDNA and predesigned primers and probes (Applied Biosystems; SIRT1, Hs01009006_m1; GAPDH, Hs99999905_m1). […]"}, "[4]": {"system": "Human adipocytes", "experiment": "Fatty acid oxidation promoting ability (3H2O in medium), adipocytes", "assay_type": "cell-based", "conditions": "50 μM, vs non-treated group, FIG. 11", "protocol": "Human adipocytes, hepatocytes and myocytes were treated with 50 μM syringaresinol in substantially the same manner as in Test Example 3. The cells were washed with PBS and cultured for a day in a medium for fatty acid oxidation analysis. The medium was recovered and the amount of ^3H2O was measured."}, "[5]": {"system": "aged retinal cells (ARPE-19)", "experiment": "Mitochondrial biosynthesis promoting effect in aged retinal cells (mitochondrial DNA relative to nuclear DNA, real-time PCR)", "assay_type": "cell-based, human", "conditions": "vs DMSO, FIG. 15", "protocol": "The aging of retinal cells was induced while treating with 50 or 100 μM syringaresinol or with DMSO as a negative control, in substantially the same manner as in Test Example 7. The cells treated with each sample were washed 2 times with cold PBS and genomic DNA (gDNA) was extracted therefrom using the FastPure DNA kit (Tokyo, Japan). For evaluation of mitochondrial biosynthesis, the quantity of the mitochondrial DNA marker cytochrome oxidase subunit II and the nuclear DNA marker cyclophilin A was quantified through real-time PCR using the extracted gDNA and the number of mitochondria was measured by calculating the quantity of mitochondrial DNA relative to the nuclear DNA. PCR reaction and analysis were carried out using the Rotor-Gene 3000 system (Corbett Research, Sydney, Australia)."}, "[6]": {"system": "human PBMCs", "experiment": "Reactive oxygen species production inhibiting effect in LPS-treated human PBMCs (H2-DCFDA)", "assay_type": "cell-based", "conditions": "human PBMCs pretreated with 20, 50 or 100 μM, then 10 ng/mL LPS; compared to cells treated only with LPS; FIG. 18", "protocol": "After pretreating human PBMCs with 20, 50 or 100 μM syringaresinol in substantially the same manner as in Test Example 10, followed by washing with PBS, inflammatory response was induced by treating with 10 ng/mL lipopolysaccharide (LPS). After treating the cells with H2-DCFDA (Invitrogen), which is a fluorescent substance capable of detecting reactive oxygen species, the amount of fluorescent substance was measured using a multiplate reader (Infinite M200; Tecan, Mannedorf, Switzerland)."}},
  "data": [
    {"smiles": "COc1cc(C2OCC3C(c4cc(OC)c(O)c(OC)c4)OCC23)cc(OC)c1O", "note": "(stereo not shown) [syringaresinol]", "values": [
      {"measurement": "expression of type 2 immune cell-specific marker genes", "setting": "[1]", "result": "significantly increased expression"},
      {"measurement": "decreased expression of the inflammatory response-related genes", "setting": "[2]", "result": "about 90%"},
      {"measurement": "SIRT1 expression", "setting": "[3]", "result": "increased SIRT1 expression in gingival fibroblasts, which had been decreased due to smoking, in a concentration-dependent manner"},
      {"measurement": "fatty acid oxidation", "setting": "[4]", "result": "increased fatty acid oxidation"},
      {"measurement": "increase in mitochondrial biosynthesis (mitochondrial DNA relative to nuclear DNA)", "setting": "[5]; 50 μM", "result": "about 40%"},
      {"measurement": "increase in mitochondrial biosynthesis (mitochondrial DNA relative to nuclear DNA)", "setting": "[5]; 100 μM", "result": "~60", "unit": "%"},
      {"measurement": "decreased reactive oxygen species production", "setting": "[6]", "result": "about 60%"}
    ]}
  ]
}
